Laboratory results published in patent publication US12582645B2, “Chemokine CXCR4 receptor modulators and uses related thereto” (Emory University, priority 2017, dated 2026).

molecular target: T1, CXCR4 (Homo sapiens, UniProt P61073); experiment: CXCR4-CEM calcium flux assay, antagonist mode (inhibition of SDF-1α-induced calcium flux); format: cell-based; conditions: CCRF-CEM cells expressing endogenous CXCR4, stimulated with 4 nM SDF-1α, read-out: CXCR4 Ca^2+ Flux IC50
T1 construct: Human T lymphoblast cells (CCRF-CEM) expressing endogenous CXCR4 receptors; endogenous in cells; host or cells: CCRF-CEM (human T lymphoblast cells)
T1 sequence (P61073 whole entry): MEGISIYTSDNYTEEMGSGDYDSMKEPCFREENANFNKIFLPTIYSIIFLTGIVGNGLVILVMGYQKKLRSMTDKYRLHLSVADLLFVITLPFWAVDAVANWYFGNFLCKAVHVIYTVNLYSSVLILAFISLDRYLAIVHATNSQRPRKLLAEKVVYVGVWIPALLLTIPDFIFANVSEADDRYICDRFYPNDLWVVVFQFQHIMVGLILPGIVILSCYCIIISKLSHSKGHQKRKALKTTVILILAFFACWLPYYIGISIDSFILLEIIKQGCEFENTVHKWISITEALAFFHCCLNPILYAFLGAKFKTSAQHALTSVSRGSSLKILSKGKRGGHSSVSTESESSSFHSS

SMILES	IC50 [nM]
CC1(C)CCC(NCc2ccc(CN(C[C@H]3Cc4ccccc4CN3)[C@H]3CCCc4cccnc43)cc2)CC1 [EMU181, (S)—N-(4-(((4,4-dimethylcyclohexyl)amino)methyl)benzyl)-N—(((R)-1,2,3,4-tetrahydroisoquinolin-3-yl)methyl)-5,6,7,8-tetrahydroquinolin-8-amine]	661
C/C(CN(C[C@H]1Cc2ccccc2CN1)[C@H]1CCCc2cccnc21)=C(/F)CN [EMU126]	1880
NCc1ccc(CN(CC2Cc3ncccc3CN2)[C@H]2CCCc3cccnc32)cc1 (single isomer, unassigned) [EMU194]	111
Cc1cccnc1CN(C)C[C@H]1Cc2c(cccc2N2CCNCC2)CN1 [EMU127, (R)—N-methyl-1-(3-methylpyridin-2-yl)-N-((5-(piperazin-1-yl)-1,2,3,4-tetrahydroisoquinolin-3-yl)methyl)methanamine]	91.2
Cc1ccc(CN(C)C[C@H]2Cc3c(cccc3N3CCNCC3)CN2)nc1 [EMU130, (R)—N-methyl-1-(5-methylpyridin-2-yl)-N-((5-(piperazin-1-yl)-1,2,3,4-tetrahydroisoquinolin-3-yl)methyl)methanamine]	510
c1cnc(CN(CCCN2CCNCC2)[C@H]2CCCc3cccnc32)nc1 [EMU187, (S)—N-(3-(piperazin-1yl)propyl)-N-(pyrimidin-2ylmethyl)-5,6,7,8-tetrahydroquinolin-8-amine]	4320
CN(C[C@H]1Cc2c(cccc2N2CCN(C3COC3)CC2)CN1)[C@H]1CCCc2cccnc21 [EMU183]	380
C(=C\CN(C[C@H]1Cc2ccccc2CN1)[C@H]1CCCc2cccnc21)/CNCC1CCOCC1 [EMU180, (E)-N1-((tetrahydro-2H-pyran-4-yl)methyl)-N4-(((R)-1,2,3,4-tetrahydroisoquinolin-3-yl)methyl)-N4-((S)-5,6,7,8-tetrahydroquinolin-8-yl)but-2-ene-1,4-diamine]	24.2
CN1Cc2cccc(N3CCN4CCC[C@@H]4C3)c2C[C@@H]1CN(C)[C@H]1CCCc2cccnc21 [EMU239]	44.6
CN(CC1CN(Cc2ccccn2)CCN1)[C@H]1CCCc2cccnc21 (single isomer, unassigned) [EMU023]	> 33300

Next, values leading:

IC50 [nM]	SMILES
1100	C[C@@H](c1ccccn1)N(C[C@H]1Cc2ccccc2CN1)C[C@H]1Cc2ccccc2CN1 [EMU065, (S)-1-(pyridin-2-yl)-N,N-bis(((R)-1,2,3,4-tetrahydroisoquinolin-3-yl)methyl)ethanamine]
32	CN1Cc2cccc(N3CCNCC3)c2C[C@@H]1CN(C)[C@H]1CCCc2cccnc21 [EMU234]
30.7	CN(C[C@H]1Cc2c(cccc2N2CCN(c3ncccn3)CC2)CN1)[C@H]1CCCc2cccnc21 [EMU203]
92.8	C(=C\CN(C[C@H]1Cc2ccccc2CN1)[C@H]1CCCc2cccnc21)/CNCc1cccnc1 [EMU222, (E)-N1-(pyridin-3-ylmethyl)-N4-(((R)-1,2,3,4-tetrahydroisoquinolin-3-yl)methyl)-N4-((S)-5,6,7,8-tetrahydroquinolin-8-yl)but-2-ene-1,4-diamine]
292	NCc1cccc(CN(C[C@H]2Cc3ccccc3CN2)[C@H]2CCCc3cccnc32)c1 [EMU094, (S)—N-(3-(aminomethyl)benzyl)-N—(((R)-1,2,3,4-tetrahydroisoquinolin-3-yl)methyl)-5,6,7,8-tetrahydroquinolin-8-amine]
